Measured values reported in patent US20110034378A1, “Pharmaceutical Combinations Comprising Specified Age Breaker and Further Drugs, I.A. Antihypertensive Drugs, Antidiabetic Drugs Etc” (priority 2008, published 2011).

Tested on: obese Zucker spontaneously hypertensive fatty rats (Ob-ZSF1)
Assay: Effect of compound 27 on diabetic cardiomyopathy and nephropathy in Ob-ZSF1 rats
Assay type: in vivo, rat
Procedure: Aim: The aim of this study was to study the effect of compound 27 on diabetic cardiomyopathy and nephropathy in obese Zucker spontaneously hypertensive fatty rats (Ob-ZSF1), an animal model of diabetes with progressive cardiac and renal dysfunction.
Method: Male Ob-ZSF1 rats were implanted with telemetry transmitters. At the age of 3 months, rats were divided into two treatment groups, compound 27, 9 mg/kg ip bid and 27 mg/kg ip, bid and a control group to which vehicle was administered until study termination at 34 weeks. 0.5% salt was added in drinking water from […] of treatment for 6 weeks in order to accelerate the vasculopathy. At fixed predetermined time intervals, blood pressure, urine albumin and creatinine were monitored during the study. Terminal measurement of cardiac function was performed in the same animals using Millar Pressure Volume (P-V) System. PV loops were captured to establish cardiac functional parameters and differences in end systolic pressure volume relationship (ESPVR) and end diastolic pressure volume relationship (EDPVR) at different preloads. Heart and kidney were collected from same set of animals at termination for gross and microscopic histopathological examination and for gene expression studies.

[1] = 9 and 27 mg/kg ip bid, terminal Millar P-V measurement, vs vehicle control
[2] = longitudinally over time, compared to control
[3] = persistent severe hyperglycemia

With CS(=O)(=O)NNC(=O)c1ccc[n+](CC(=O)c2cccs2)c1.[Cl-] [compound 27, 1-(2-thien-2′-yl-2-oxoethyl)-3-(methanesulfonyl hydrazinocarbonyl)pyridinium chloride] as the molecule, how does the “Relative heart wet weight” value (27 mg/kg group) read?
Its value is “significantly lesser”.

What about the “damage to cardiomyocytes, microscopic examination” value (27 mg/kg group, compared to the control group) of the same molecule?
The value was “less severe damage”.

What about the cardiac output (9 and 27 mg/kg ip bid, terminal Millar P-V measurement at 34 weeks, vs vehicle control) of the same molecule?
The cardiac output was “significant improvement”.

And the diastolic relaxation [1]?
The diastolic relaxation was “more efficient”.

What about the systolic contractile function [1] of the same molecule?
The systolic contractile function was “better”.

And the ventricular compliance [1]?
Its ventricular compliance is “improved”.

What about the “peripheral resistance (afterload)” value (9 and 27 mg/kg ip bid, vs vehicle control) of the same molecule?
The value was “significant reduction”.

What about the “renal pathology observed microscopically” value (compared to control) of the same molecule?
The value was “less severe”.

What about the “Inflammatory cytokine Interleukin-6 (IL-6)” value (compound 27 treated groups) of the same molecule?
Its value is “reduced significantly”.

What about the Renal function (higher dose group, compared to control) of the same molecule?
The Renal function was “distinct improvement”.

What about the “Percent increase from baseline for albumin to creatinine ratio” value [2] of the same molecule?
Its value is “significantly reduced”.

And the “Percent increase from baseline for serial creatinine excretion” value [2]?
Its value is “significantly reduced”.

And the “Percent increase from baseline for urinary albumin excretion” value [2]?
Its value is “significantly reduced”.

And the “Brain natriuretic peptide (BNP) expression” value (marker of cardiac failure, compared to control animals)?
The value was “reduced”.

What about the “cardiac function (conclusion)” value [3] of the same molecule?
Its value is “clearly preserved”.

What about the “renal dysfunction (conclusion)” value [3] of the same molecule?
The value was “reduced the severity”.

What about the BP (telemetry, compound 27 treated animals) of the same molecule?
Its BP is “reduction”.
